# Assay results reported in publication PMC12867150, “A fungi-derived cyclic peptide enhances Th9-mediated antitumor immunity by targeting ZAP70 and SREBP1” (The Journal of Clinical Investigation, 2025).
# “And” between values parts separate entries of the source, which are not always exact repeats. Equal entries are not always repeated.
# Experiments:
# [1] = system: Il9 and Tnf mRNA in Th9 cells; assay: Quantitative PCR of Il9 and Tnf mRNA with fatostatin or SREBP1 overexpression (Figure 7B, 7H, 7I); format: cell-based, mouse
# Procedure: For murine T cell transduction, MIGR1-based retroviral vector encoding Srebf1 was used. HEK293T cells were transfected with these constructs using Lipofectamine 3000 (Thermo Fisher Scientific) to produce viral particles. Supernatants were collected between 48 and 72 hours after transfection, filtered through a 0.45 μm membrane, and stored at –80°C. Naive murine CD4^+ T cells were activated with plate-bound anti-CD3 (2 μg/mL, clone 17A2, BioXCell) and soluble anti-CD28 (1 μg/mL, clone 37.51, BioXCell) stimulation in the presence of subset-specific polarizing cytokines and then transduced with viral supernatant supplemented with polybrene (10 μg/mL).
# Total RNA was extracted from T cells using RNAex Pro Reagent (AG, catalog AG21102) following the manufacturer’s instructions. First-strand complementary DNA (cDNA) was synthesized using the Hifair III 1st Strand cDNA Synthesis SuperMix (YEASEN, catalog 11137ES10). Quantitative real-time PCR (qRT-PCR) was conducted on a QuantStudio 3 Real-Time PCR System (Thermo Fisher Scientific) using ChamQ Universal SYBR qPCR Master Mix (Vazyme, catalog Q711-02) and gene-specific primers (Tsingke Biotech).
# For normalization, mouse samples were referenced to Gapdh or Actb, and human samples were normalized to GAPDH. Relative gene expression was calculated using the ΔΔCt method. Primer sequences are listed in Supplemental Table 5.
# [2] = system: B16-OVA melanoma; assay: Adoptive transfer of OT-II Th9 cells, B16-OVA tumor growth in β2m-KO mice (Figure 2H); format: in vivo; details: result in words
# Excerpt: (A) Schematic of the therapeutic model. C57BL/6 mice were subcutaneously inoculated with B16-OVA melanoma cells (5 × 10^5) and preconditioned with cyclophosphamide (CTX) on day 4. […] (B–G) Flow-cytometric analysis of transferred CD45.1^+ OT-II Th9 cells (B and C) and endogenous CD4^+ (D and E) and CD8^+ T cells (F and G) in spleens and tumors, showing frequencies and absolute numbers (n = 4 mice per group). (H) Tumor growth curves in B16-OVA–bearing C57BL/6 or β2-microglobulin–deficient (β2m-KO) mice following transfer of control or EpA-treated OT-II Th9 cells (n = 4 mice per group). (I) C57BL/6 mice bearing B16-OVA tumors were treated with control or EpA-induced OT-II Th9 cells (2 × 10^6, i.v., day 5), followed by anti–PD-1 antibody (200 μg, i.p.) on day 7, and (100 μg, i.p.) on day 10 and 12. Tumor growth is shown with individual trajectories (n = 6 mice per group). Statistical analysis was performed using 2-tailed unpaired Student’s t test ([…], B–G) or 1-way ANOVA with Tukey’s post hoc test (H and I). All data are presented as the mean ± SEM. *P < 0.05, **P < 0.01, ***P < 0.001. Schematic in A created using BioRender (https://Biorender.com).
# To directly assess the requirement for endogenous CD8^+ T cells, we utilized β2-microglobulin–deficient (β2m-KO) mice, which lack functional MHC class I and are therefore devoid of CD8^+ T cells ([32]). […]
substance,measurement,setting,value
anteiso-C15 Leu7 surfactin [EpA],Il9 mRNA expression (quantitative PCR),"[1]; Figure 7B, EpA (10 µM) + Fatostatin (10 µM), individual replicates, (n = 3)",42.4796 and 40.5146 and 54.9024
same,Il9 mRNA expression in Th9 cells,"[1]; Figure 7H, MigR1 vector, individual replicates, (n = 3)",17.2536 and 18.9128 and 17.6178
same,Il9 mRNA expression in Th9 cells,"[1]; Figure 7H, overexpressing SREBP1, individual replicates, (n = 3)",6.0458 and 5.242 and 5.497
same,Il9 mRNA expression in Th9 cells,"[1]; Figure 7I, MigR1 vector, individual replicates, (n = 3)",2.765 and 2.875 and 2.532
same,Il9 mRNA expression in Th9 cells,"[1]; Figure 7I, overexpressing SREBP1, individual replicates, (n = 3)",1.999 and 1.591 and 1.423
same,EpA-induced Il9 and Tnf mRNA increase upon SREBP1 overexpression,[1]; result in words,markedly suppressed
same,enhanced antitumor efficacy in β2m-KO hosts,[2],completely abolished
